The values below come from patent publication US5955493A, “Thiamorphinans with neuroprotective activity” (priority 1995, dated 1999).

Data set [1] relates to NMDA-induced convulsion. The experiment in a line: Inhibition of NMDA-induced convulsion (i.c.v. coinjection). The format is in vivo, Male Swiss Webster mice. The procedure: Male Swiss Webster mice [(SW) fBR] 20-25 g (Canadian Breading Farms St. Constant, Quebec), were coinjected intracerebroventricullarly (i.c.v.) with various doses of test compound and NMDA (1 and 2 nmol; Sigma Chemical Co., St. Louis, Mo.) in total volume of 10 μl. […] The convulsive response to NMDA was within 5 minutes of injection, characterized by wild running, popcorn jumping and myoclonic seizures (i.e. repetitive movements involving all limbs simultaneously, usually accompanied by loss of righting reflex). A minimum of 15 animals were used in each treatment group. The number of mice convulsing in each group was recorded. The dose producing convulsions in 50% of the mice (CD50) was calculated by the method of Litchfield and Wilcoxon ("Manual and Pharmacological Calculations with Computer Programs", 2nd ed., Springer, N.Y., 1987).

Data set [2] has as its system Mice. In words: Rotarod test (motor effects). The format is in vivo. Conditions: i.c.v.; for Max. % mice showing motor effect: rotarod 8 revolutions per min, *P ≤ 0.05 as compared with control. The text has this: The rotarod treadmill for mice (model 7600, UGO Basile, Italy) was used to assess the motor effects of the test compounds. The method used was similar to the procedure described by Dunham and Miya (J. Am. Pharmac. Assoc., 1957, 46:208). The apparatus consisted of a rod with a diameter of 2.5 cm which was suspended horizontally 50 cm above a plain working area. The rod was turned at a speed of 8 revolutions per min. Circular perspex separators were placed at intervals along the rod so that five animals could be tested at the same time. Before administering any compound, all tested mice were placed on the turning rod for 1 min on two consecutive days. Mice that fell from the rod during this test were excluded. The test compounds were administered i.c.v. and the % of mice showing motor effects was monitored.
(The rotarod test checks motor coordination on a turning rod.)

Data set [3] has as its system Mice. In words: Locomotion and falling behavior. The data set is classed as in vivo. The note with it: i.c.v.; for % mice showing significant effect (falling): at min. dose for falling; for % mice showing significant effect (locomotion): at min. dose for locomotion; for min. dose for falling / min. dose for locomotion: observed 15 to 30 min after injection. The procedure:
Mice were placed individually in observation cages for a 60 minute habituation period, injected i.c.v. with the different compounds and observed from 15 to 30 min. after injection. Locomotion and falling behavior were assessed according to the procedure of Koek and Colpaert (J. Pharm. Exp. Ther., 1990, 252:349). For each mouse the presence of locomotion (locomotion with all four legs moving for at least 15 seconds) and falling behavior (falling from rearing or standing position backward or to the side) was recorded. Statistical significance of drug-induced changes in the occurrence of a particular behavior was tested by the method of Fray et al […].

Data set [4] concerns AMPA-induced convulsions. The experiment in a line: Inhibition of AMPA-induced convulsions. The note with it: i.c.v. The format is in vivo, Male Swiss Webster mice. The procedure:
Male Swiss Webster mice [(SW) fBR]20-25 g, were coinjected intracerebroventricullarly (i.c.v.) with various doses of test compounds, α- and β-sulfallorphan, […]; Research Biochemical Inc.) kainic acid (0.25-0.75 nmol; Sigma Chemical Co.) and biculline (1-10 nmol; Research Biochemical Inc.) in total volume of 10 μl. […] The convulsive response to the AMPA, kainic acid and biculline was within 5 minutes of injection, characterized by wild running, popcorn jumping and myoclonic seizures (i.e. repetitive movements involving all limbs simultaneously, usually accompanied by loss of righting reflex). A minimum of 15 animals were used in each treatment group. The number of mice convulsing in each group was recorded. The dose producing convulsions in 50% of the mice (CD50) was calculated by the method of Litchfield and Wilcoxon. LD50, the dose producing mortality in 50% of the mice, was determined by Fisher's exect test. The results for both α- and β-sulfallorphan are summarized below in tables II and III.

Data set [5] deals with Kainic acid-induced convulsions. The experiment in a line: Inhibition of kainic acid-induced convulsions. Conditions: i.c.v. The format is in vivo, Male Swiss Webster mice. The procedure: (§1) Male Swiss Webster mice [(SW) fBR]20-25 g, were coinjected intracerebroventricullarly (i.c.v.) with various doses of test compounds, α- and β-sulfallorphan, with AMPA (0.25-2.0) nmol; Research Biochemical Inc.) kainic acid (0.25-0.75 nmol; Sigma Chemical Co.) and biculline (1-10 nmol; Research Biochemical Inc.) in total volume of 10 μl. […] The convulsive response to the AMPA, kainic acid and biculline was within 5 minutes of injection, characterized by wild running, popcorn jumping and myoclonic seizures (i.e. repetitive movements involving all limbs simultaneously, usually accompanied by loss of righting reflex). A minimum of 15 animals were used in each treatment group. The number of mice convulsing in each group was recorded. The dose producing convulsions in 50% of the mice (CD50) was calculated by the method of Litchfield and Wilcoxon. LD50, the dose producing mortality in 50% of the mice, was determined by Fisher's exect test. The results for both α- and β-sulfallorphan are summarized below in tables II and III.

Data set [6] deals with Bicuculline-induced convulsions. In words: Inhibition of bicuculline-induced convulsions. The format is in vivo, Male Swiss Webster mice. The note with it: i.c.v. The procedure: as §1

`C=CC[S+]1CC[C@]23CCCC[C@H]2[C@H]1Cc1ccc(O)cc13` (relative stereo) [compound 12, 3-hydroxy-17-deaza-17-allylthionium-17-thiamorphinan]: in data set [1] (1 nmol NMDA), the CD50 amounted to 0.07 nmol/mouse.

As to `CC(C)=CC[S+]1CC[C@]23CCCC[C@H]2[C@H]1Cc1ccc(O)cc13` (relative stereo) [compound 13, 3-hydroxy-17-deaza-17-dimethylallylthionium-17-thiamorphinan], the “Max. % mice showing motor effect” value in data set [2] stood at 0%. This compound returned a CD50 in data set [1] (1 nmol NMDA) of 0.19 nmol/mouse.

Regarding `Oc1ccc2c(c1)[C@@]13CCCC[C@H]1[C@@H](C2)[S+](CCc1ccccc1)CC3` (relative stereo) [compound 14, 3-hydroxy-17-deaza-17-phenethylthionium-17-thiamorphinan], in data set [2], the “Max. % mice showing motor effect” value is 20%. In addition, in data set [1] (1 nmol NMDA), the CD50 turned out to be 0.99 nmol/mouse.

With `C[S+]1CC[C@]23CCCC[C@H]2[C@H]1Cc1ccc(O)cc13` (relative stereo) [compound 17, 3-hydroxy-17-deaza-17-methylthionium-17-thiamorphinan], in data set [2], the “Max. % mice showing motor effect” value was 60%. Besides, the CD50 in data set [1] (1 nmol NMDA) is given as 0.02 nmol/mouse.

For `C[C@]12N[C@H](Cc3ccccc31)c1ccccc12` [MK-801], in data set [3], the “% mice showing significant effect (falling)” value worked out at 50%, the “% mice showing significant effect (locomotion)” value turned out to be 30%, the “min. dose for falling” value is 1.50 nmol/mouse and the “min. dose for locomotion” value is given as 0.25 nmol/mouse.

`C=CCN1CC[C@@]23CCCC[C@@H]2[C@@H]1Cc1ccc(O)cc13` [dextrallorphan]: the CD50 stood at 2.68 nmol/mouse in data set [1] (1 nmol NMDA) and 43.2 nmol/mouse in data set [1] (2 nmol NMDA).

Regarding `COc1ccc2c(c1)[C@]13CCCC[C@@H]1[C@H](C2)N(C)CC3` [dextromethorphan], in data set [3], the “% mice showing significant effect (falling)” value came to 27%, the “% mice showing significant effect (locomotion)” value was 30%, the “min. dose for falling” value is reported as 0.20 nmol/mouse and the “min. dose for locomotion” value is recorded as 0.10 nmol/mouse.

`CN1CC[C@@]23CCCC[C@@H]2[C@@H]1Cc1ccc(O)cc13` [dextrorphan, reference compound]: in data set [2], the “Max. % mice showing motor effect” value came to 60%. In addition, in data set [2] (α-sulfallorphan 30 nmol/mouse, dextrorphan 60 nmol/mouse), the “motor effect (statement)” value is “induces a significant rise in motor effect”. The CD50 is on record as 0.55 nmol/mouse in data set [1] (1 nmol NMDA) and more than 100 nmol/mouse in data set [1] (2 nmol NMDA).

Take `C=CCN1CC[C@]23CCCC[C@H]2[C@H]1Cc1ccc(O)cc13` [levallorphan]: the values for the CD50 in data set [1] (1 nmol NMDA) and in data set [1] (2 nmol NMDA) were 1.06 nmol/mouse and more than 20 nmol/mouse, respectively.

Turning to `CN1CC[C@]23CCCC[C@H]2[C@H]1Cc1ccc(O)cc13` [levorphanol], the CD50 in data set [1] (1 nmol NMDA) is recorded as 0.21 nmol/mouse; in data set [1] (2 nmol NMDA), more than 200 nmol/mouse.

`C=CC[S+]1CC[C@]23CCCC[C@H]2[C@H]1Cc1ccc(O)cc13` (stereo partly drawn) [β-sulfallorphan 16, 3-hydroxy-17-deaza-17-allylthionium-17-thiamorphinan]: the “% mice showing significant effect (locomotion)” value in data set [3] was 20%. Further, the “locomotion and falling behavior (statement)” value in data set [3] was “less locomotion than dextromethorphan and required greater amount to exhibit a significant effect”. The “min. dose for falling” value in data set [3] is recorded as “no effect”. Further, in data set [3], the “min. dose for locomotion” value was 1.25 nmol/mouse. In data set [2], the “Max. % mice showing motor effect” value is given as 20%. For the same compound, the CD50 in data set [4] (CD50 of AMPA (0.25-5 nmol/mouse) with 0.4 nmol/mouse β-sulfallorphan) is given as 0.29 nmol/mouse; in data set [1] (1 nmol NMDA) it was 0.015 nmol/mouse; in data set [1] (2 nmol NMDA), 0.28 nmol/mouse; in data set [5] (CD50 of kainic acid (0.25-0.72 nmol/mouse) with 0.4 nmol/mouse β-sulfallorphan) it was 0.39 nmol/mouse; in data set [6] (CD50 of bicuculline (1-10 nmol/mouse) with 0.4 nmol/mouse β-sulfallorphan), 3.12 nmol/mouse. In addition, the LD50 entry in data set [4] (LD50 of AMPA (0.25-5 nmol/mouse) with 0.4 nmol/mouse β-sulfallorphan, none = no mortality observed at dose tested) is “none”; in data set [5] (LD50 of kainic acid (0.25-0.72 nmol/mouse) with 0.4 nmol/mouse β-sulfallorphan, none = no mortality observed at dose tested), “none”; in data set [6] (LD50 of bicuculline (1-10 nmol/mouse) with 0.4 nmol/mouse β-sulfallorphan, none = no mortality observed at dose tested), “none”.
